Test results as given in patent US4256883A, “Pyridoza prostacyclin analogues and N-oxides thereof” (Research Corporation, priority 1979, dated 1981).
“Also recorded” adds a separate entry of the source. Read-outs that look alike come from different tables or passages of the source. Blank lines part the entries; values can stand above or below the compound they belong to.

Assays:
[1] = test system: blood platelets and arteries; settings: prior-art analogues, comparison by inventors; cited from earlier work
[2] = test system: isolated perfused cat coronary arteries; experiment: Effects on isolated perfused cat coronary arteries (perfusion pressure); settings: for Biological Activity: Cat Coronary Artery (in words): isolated perfused right coronary artery, 37° C., Krebs-Henseleit
Description: Effects of prostacyclin analogs on isolated perfused cat coronary arteries were measured as follows.
Cats of either sex (2.5-3.5 kg) were anesthetized with sodium pentobarbital (30 mg/kg) given intravenously. […] A 20-gauge stainless steel cannula was inserted into the right coronary artery via the coronary ostium. Distal to the cannula, approximately 1 cm of coronary artery was dissected free of surrounding tissue. The section of right coronary artery with the cannula in place was excised from the heart and immediately transferred to a constant flow perfusion apparatus.
The perfusion apparatus consists of a reservoir containing 20 ml of warm (37° C.) oxygenated (95% O2 +5% CO2) K-H solution which bathes the coronary artery and serves as recirculating perfusate. An increase in perfusion pressure indicates vasoconstriction, whereas a decrease in perfusion pressure signifies vasodilation. Following an initial 1 hr. equilibrium period, vascular responsiveness was established by adding 25 mM KCl. After washing with fresh K-H solution for 20-30 mins., the preparation achieved a relatively constant low basal tone. […] Fresh K-H dilutions of stock prostacyclin analog concentrations were added to the perfusate reservoir in 0.1-0.2 ml volumes.

[3] = test system: human and rabbit citrated platelet-rich plasma; experiment: Effects on platelet aggregation (citrated platelet-rich plasma, chronolog aggregometer, 37°); format: cell-based; settings: for Biological Activity: Platelet Aggregation (in words): inhibition of aggregation induced by 2 uM ADP, human and rabbit platelet-rich plasma, 37°
Description: Effects of prostacyclin analogs on platelet aggregation were evaluated using human and rabbit citrated platelet-rich plasma in a chronolog aggregometer at 37°.

[4] = test system: blood platelet aggregation; settings: background statement, cited from earlier work
[5] = test system: blood vessels / arteries; settings: background statement; cited from earlier work
[6] = background; Bundy, Tetrahedron Letters, 1371 (1978); cited from earlier work
[7] = t1/2 in saline at 25°
[8] = Stability of free acid XXIV in aqueous solutions at 25° C.; format: physicochemical
Description: Free acid XXIV was stable in aqueous solutions at 25° C. for at least 30 days.

[9] = number in parentheses, not explained, natural prostacyclin = 1

Compound: CCCCC[C@H](O)/C=C/[C@@H]1[C@H]2CC(CCCCC(=O)O)O[C@H]2C[C@H]1O (stereo partly shown) [VI, dihydroprostacyclin]
biological activity relative to prostacyclin (in words) [1]: somewhat less, active; also recorded: less biological activity

Compound: 7,8-dihydro-6,9-pyridaza prostacyclin [XXIII]
Biological Activity: Cat Coronary Artery (in words) [2]: Dilator (Potent)
Biological Activity: Cat Coronary Artery, number in parentheses [2, 9]: 0.1
Biological Activity: Platelet Aggregation (in words) [3]: Inhibitor (Potent)
Biological Activity: Platelet Aggregation, number in parentheses [3, 9]: 0.1

t1/2 Saline (25°): > 24 h
Compound: 6, 9-pyridaza prostacyclin, N-oxides [N-oxides XXV]
Biological Activity: Cat Coronary Artery (in words) [2]: Small effect
Biological Activity: Platelet Aggregation (in words) [3]: Small effect

Compound: CCCCC[C@H](O)/C=C/[C@H]1O[C@H]2C[C@H](O2)[C@@H]1C/C=C\CCCC(=O)O [Thromboxane A2]
effect on blood platelet aggregation (in words) [4]: causes platelet aggregation
effect on blood vessels / arteries (in words) [5]: powerful constrictor of arteries

Compound: CCCCC[C@H](O)/C=C/[C@@H]1[C@H]2CCC(CCCC(=O)O)=N[C@H]2C[C@H]1O [V]
effect on blood platelet aggregation (in words) [4]: potency in inhibiting platelet aggregation
stability (in words) [6]: high stability

half-life [7]: > 24 h
Stability in aqueous solutions (stable for at least) [8]: at least 30 days
Compound: CCCCC[C@H](O)/C=C/[C@@H]1c2cc(CCCCC(=O)O)nnc2C[C@H]1O [XXIV, 6,9-pyridaza prostacyclin, free acid]
Biological Activity: Cat Coronary Artery (in words) [2]: Dilator (Potent)
Biological Activity: Platelet Aggregation (in words) [3]: Inhibitor (Potent)

Compound: CCCCC[C@H](O)/C=C/[C@@H]1[C@H]2CC(CCCCC(=O)O)=N[C@H]2C[C@H]1O [IV]
effect on blood platelet aggregation (in words) [4]: potency in inhibiting platelet aggregation
stability (in words) [6]: high stability

Compound: CCCCC[C@H](O)/C=C/[C@@H]1[C@H]2CC(/C=C/CCC(=O)O)O[C@H]2C[C@H]1O (stereo partly shown) [VII, (4E)--isoprostacyclin]
biological activity relative to prostacyclin (in words) [1]: somewhat less, active; also recorded: less biological activity

half-life [7]: 0.0333 h
Compound: CCCCC[C@H](O)/C=C/[C@@H]1[C@H]2C/C(=C/CCCC(=O)O)O[C@H]2C[C@H]1O [Natural prostacyclin, 6,9α-oxido-11α,15α-dihydroxyprosta (Z)5, E(13)-dienoic acid]
Biological Activity: Cat Coronary Artery (in words) [2]: Dilator (Potent)
effect on blood platelet aggregation (in words) ([4]; listed as Prostacyclin): most potent inhibitor of blood platelet aggregation of all the prostaglandins discovered to date
effect on blood platelet aggregation (in words) ([4]; listed as prostacyclin): destroys platelet aggregates after they have formed
effect on blood vessels / arteries (in words) [5]: powerful action as a dilator of blood vessels
Biological Activity: Platelet Aggregation (in words) [3]: Inhibitor (Potent)
